The values below are quoted from earlier work in patent publication US11398630B2, “Method of generating energy from a hydrazide containing anode fuel, and fuel cell” (priority 2019, dated 2022).

Like-named read-outs stand apart in the source and are kept apart here.

The subject of series [1] is rat.
The conditions of series [2]: ambient conditions.

Turning to `COC` [Dimethyl ether], the Toxicity-LD50 oral rat in series [1] (oral, rat) was >5,000 mg/kg. On to `CO` [Methanol], for which the Toxicity-LD50 oral rat in series [1] (oral, rat) is >5,000 mg/kg. As to `NNC(=O)NN` [Carbohydrazide, carbohydrazide], in series [1] (compared with hydrazine), the toxicity in words result was “nontoxic”. Besides, in series [1] (oral, rat), the Toxicity-LD50 oral rat is given as >5,000 mg/kg. In series [1] (rat, printed as mg/kg-rat, route not given), the LD50 is > 5,000 mg/kg. In addition, the miscibility with water result in series [2] is listed as “^aUnder ambient conditions, carbohydrazide is a solid, but it is completely miscible with water”.

As for `OCC(O)CO` [Glycerol], the Toxicity-LD50 oral rat in series [1] (oral, rat) is on record as >5,000 mg/kg. Consider `CCO` [Ethanol], for which the Toxicity-LD50 oral rat in series [1] (rat, in vivo, po) is recorded as >5,000 mg/kg. Consider `B` [Borohydride], for which the Toxicity-LD50 oral rat in series [1] (oral, rat) is on record as 160 mg/kg.
